Test results taken from patent US20030022243A1, “Protein aggregation assays and uses thereof” (priority 2001, published 2003).

Key:
Type in all cases: biochemical
[1] = target: T1, SOD-1, from human erythrocytes (Homo sapiens, UniProt P00441); experiment: MCO (ascorbate/Cu)-induced SOD-1 aggregation, right angle light scattering
T1 construct: SOD-1 was purchased from Sigma (purified from erythrocytes) and dissolved in the appropriate buffer; purchased Sigma-Aldrich Fine Chemicals (St. Louis, Mo., USA); host or cells: human erythrocytes
T1 sequence (P00441 2-154 limits assumed): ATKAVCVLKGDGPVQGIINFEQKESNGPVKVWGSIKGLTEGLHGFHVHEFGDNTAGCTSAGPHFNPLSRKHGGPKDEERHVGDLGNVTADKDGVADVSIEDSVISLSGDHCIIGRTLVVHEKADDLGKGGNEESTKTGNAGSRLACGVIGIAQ
Method: The effect of pH, copper ions, and ascorbic acid on the induction of SOD-1 aggregation was examined as follows. […] Right angle light scattering was measured at room temperature using a Photon Technology International QM-1 fluorescence spectrophotometer. Both the excitation and emission wavelengths were set to 350 nm and a 1 nm bandpass. A cuvette with an excitation and emission path lengths of 2 mm and 10 mm, respectively was used for the measurements.
In addition, right angle light scattering was measured using a DynaPro99 Molecular Sizing Instrument with attached MicroSampler-MSXTC/12 (Protein Solutions, Inc., Charlottesville, Va.). A 12 μl-DynaPro quartz cuvette with a path length of 1.5 mm was used for all experiments. In the measurement, the SOD-1 sample solution was illuminated by a 60 mW, 825 nm solid-state laser, and the intensity of light scattered at a 90° angle was measured directly as the solution photon count rate in units of kcounts/sec. The averaged count rate was automatically calculated after all acquisitions of the measurements.

Zinc-deficient SOD-1 = Zinc-deficient SOD-1 (Homo sapiens, UniProt P00441); experiment: MCO-induced aggregation of zinc-deficient SOD-1, light scattering; settings: 37° C.
Zinc-deficient SOD-1, sequence (P00441 2-154 limits assumed): as above
Method: Apo-SOD-1 was incubated in the presence of a 1.1-fold molar excess of CuCl2 in 17 mM sodium acetate buffer, pH 3.8, for 24 hours at 40° C.
Zinc-deficient SOD-1 was prepared, MCO-treated, and used to test various compounds and conditions for their effect on SOD-1 aggregation. Zinc-deficient SOD-1 aggregation mixtures were incubated with either 2 mM EDTA, 10 mM mannitol, or 10 mM DMPO as probes for the reactive oxygen species. Anaerobic conditions were achieved by degassing all solutions and oxidizing under vacuum (37° C.) in a vacuum hydrolysis tube (Pierce). Aggregates were detected using light scattering measurements made with a Photon Technology International QM-1 fluorescence spectrophotometer. Excitation and emission wavelengths were set to 350 nm (bandpass=4 nm).

apo-SOD-1 = apo-SOD-1 (Homo sapiens, UniProt P00441); experiment: Native state stabilization assay (thermal aggregation of apo-SOD-1, RP-HPLC of soluble SOD-1); settings: apo-SOD-1 incubated at 60° C. with exogenous metal
apo-SOD-1, sequence (P00441 2-154 limits assumed): as above
Method: Apo-SOD-1 was prepared from holo-SOD-1 as reported (Crow et al., J. Neurochem., 69:1936, 1997). Holo-SOD-1 was first extensively dialyzed against 10 mM sodium acetate buffer containing 1 mM EDTA, pH 3.8 for 24-72 hours, then dialyzed against 10 mM sodium acetate buffer containing 100 mM NaCl, pH 3.8, and finally dialyzed against the desired buffer.
For FIG. 17, apo-SOD-1 (100 μl) prepared as described above at a concentration of 30 μM in 10 mM sodium acetate buffer, pH 5.0, was incubated for 24 hours at either 4°, 37°, or 60° C. in sealed polypropylene tubes. […] RP-HPLC was carried out on a Zorbax SB300 C8 column (3.0×10 cm, 3.5 μm particle size) using a linear 4% B per min AB gradient at a flow rate of 1.0 ml/min, where A was 0.1% aqueous TFA and B was 0.1% TFA in acetonitrile. Detection was based on UV absorbance at 215 nm. In contrast, the sample incubated at 60° C. contained essentially no soluble SOD-1 in the supernatant as measured by the same method of analysis.
An example of the use of the native state stabilization assay to test agents for inhibition of aggregation can be found in FIG. 18. Apo-SOD-1 samples were incubated under various conditions and analyzed by RP-HPLC to quantitate amounts of soluble SOD-1 remaining. Apo-SOD-1 incubated at 4° C. […] (positive aggregation control; chromatogram a). […]

[2] = 10 mM free radical scavenger in the oxidation reaction

[Cl][Cu][Cl] [CuCl2]
induction of SOD-1 aggregates ([1]; 25 μM CuCl2 in 10 mM sodium phosphate, no ascorbic acid, 38 hours): no aggregates of SOD-1 were induced | relative amount of aggregation induced by ascorbic acid ([1]; addition of 25 μM CuCl2 to 2 mM ascorbic acid): significantly enhanced

CC1(C)CCC=[N+]1[O-] [DMPO]
inhibition of MCO-induced aggregation (light scattering) (Zinc-deficient SOD-1; [2]): did not inhibit aggregation

O=C(O)CN(CCN(CC(=O)O)CC(=O)O)CC(=O)O [EDTA]
inhibition of MCO-induced aggregation (light scattering) (Zinc-deficient SOD-1; 2 mM EDTA in the oxidation reaction): inhibited aggregation

O=C1O[C@H]([C@@H](O)CO)C(O)=C1O [ascorbic acid]
induction of SOD-1 aggregates detectable by right angle light scattering ([1]; 2 mM ascorbic acid, 10 mM phosphate buffer pH 6, 37° C., 38 hours): resulted in the formation of aggregates

[Cu] [copper]
soluble SOD-1 remaining versus apo-SOD-1 without exogenous metal (RP-HPLC) (apo-SOD-1): significantly more soluble SOD-1

OC[C@@H](O)[C@@H](O)[C@H](O)[C@H](O)CO [mannitol]
inhibition of MCO-induced aggregation (light scattering) (Zinc-deficient SOD-1; [2]): did not inhibit aggregation

[Zn] [zinc]
soluble SOD-1 remaining versus apo-SOD-1 without exogenous metal (RP-HPLC) (apo-SOD-1): significantly more soluble SOD-1
